# In patent US8664226B2, “Compound having 3-heteroarylpyrimidin-4-(3H)-one structure and pharmaceutical preparation containing same” (Kowa Company, Ltd., priority 2009, dated 2014):
# Target: T1, angiotensin II type 1 receptor (Oryctolagus cuniculus, UniProt P34976)
# T1 construct: By using a specimen of isolated rabbit blood vessels; from tissue; host or cells: rabbit thoracic aorta ring (New Zealand White, male)
# T1 sequence (P34976 1-359): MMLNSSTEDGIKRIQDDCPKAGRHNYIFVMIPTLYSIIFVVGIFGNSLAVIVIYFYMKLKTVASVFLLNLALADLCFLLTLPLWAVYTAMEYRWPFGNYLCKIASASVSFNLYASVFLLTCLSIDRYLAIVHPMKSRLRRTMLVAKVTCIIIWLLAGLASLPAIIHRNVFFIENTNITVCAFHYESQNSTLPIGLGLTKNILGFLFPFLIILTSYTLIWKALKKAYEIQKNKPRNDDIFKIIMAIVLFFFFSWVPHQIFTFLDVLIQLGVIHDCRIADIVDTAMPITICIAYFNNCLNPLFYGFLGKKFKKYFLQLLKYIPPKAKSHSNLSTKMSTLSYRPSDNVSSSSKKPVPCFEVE
# Assay: Angiotensin II antagonistic activity in isolated rabbit blood vessels
# Settings: angiotensin II (10 nM)-induced contraction of rabbit thoracic aorta ring
# Method: By using a specimen of isolated rabbit blood vessels, antagonistic activity of the compounds of the invention against angiotensin II type 1 receptor was estimated from a dose-response curve of angiotensin II-induced blood vessel contraction.
# During the measurement, the inside temperature of the magnus bath was maintained at 37° C. and the bath was continuously ventilated with a sufficient amount of mixed gas (95% O2 and 5% CO2). The angiotensin II-induced contraction was converted into a relative value (%) that is based on the angiotensin II (10 nM)-induced contraction in the absence of the compounds of each example. From the concentration-response curve obtained therefrom, 50% inhibition concentration (IC50 value) was calculated by using SAS Preclinical Package Ver5.0 (trade name, manufactured by SAS institute Japan Co., Tokyo, Japan), which is a statistical analysis program.
row,Compound,IC50 [nM]
1,"CCCCc1nc(C)n(-c2ncc(OCCS(C)(=O)=O)cn2)c(=O)c1Cc1ccc(-c2ccccc2-c2nnn[nH]2)cc1 [Example 27, 5-{[2′-(1H-tetrazol-5-yl)biphenyl-4-yl]methyl}-6-butyl-2-methyl-3-{5-[2-(methylsulfonyl)ethoxy]pyrimidin-2-yl}pyrimidin-4 (3H)-one]",5
2,"CCCCc1nc(C)n(-c2ncc(OCC(=O)NCC)cn2)c(=O)c1Cc1ccc(-c2ccccc2-c2nnn[nH]2)cc1 [Example 40, 2-{2-{5-{[2′-(1H-tetrazol-5-yl)biphenyl-4-yl]methyl}-4-butyl-2-methyl-6-oxopyrimidin-1(6H)-yl}pyrimidin-5-yloxy}-N-ethylacetamide]",5.9
3,"CCCCc1nc(C)n(-c2ncc(OCC(=O)N(CC)CC)cn2)c(=O)c1Cc1ccc(-c2ccccc2-c2nnn[nH]2)cc1 [Example 41, 2-{2-{5-{[2′-(1H-tetrazol-5-yl)biphenyl-4-yl]methyl}-4-butyl-2-methyl-6-oxopyrimidin-1(6H)-yl}pyrimidin-5-yloxy}-N,N-diethylacetamide]",8.7
4,"CCCCc1nc(C)n(-c2ncc(OCCCC(=O)OCC)cn2)c(=O)c1Cc1ccc(-c2ccccc2-c2nnn[nH]2)cc1 [Example 45, ethyl 4-{2-{5-{[2′-(1H-tetrazol-5-yl)biphenyl-4-yl]methyl}-4-butyl-2-methyl-6-oxopyrimidin-1(6H)-yl}pyrimidin-5-yloxy}butanoate]",242
5,"CCCCc1nc(C)n(-c2ncccn2)c(=O)c1Cc1ccc(-c2ccccc2-c2nnn[nH]2)cc1 [Example 17, 5-{[2′-(1H-tetrazol-5-yl)biphenyl-4-yl]methyl}-6-butyl-2-methyl-3-(pyrimidin-2-yl)pyrimidin-4 (3H)-one]",9.2
6,"CCCCc1nc(C)n(-c2ncc(OCCCC(=O)NC(C)C)cn2)c(=O)c1Cc1ccc(-c2ccccc2-c2nnn[nH]2)cc1 [Example 51, 4-{2-{5-{[2′-(1H-tetrazol-5-yl)biphenyl-4-yl]methyl}-4-butyl-2-methyl-6-oxopyrimidin-1(6H)-yl}pyrimidin-5-yloxy}-N-isopropylbutanamide]",5.8
7,"CCCCc1nc(C)n(-c2ncc(OCCCCC(=O)N(CC)CC)cn2)c(=O)c1Cc1ccc(-c2ccccc2-c2nnn[nH]2)cc1 [Example 55, 5-{2-{5-{[2′-(1H-tetrazol-5-yl)biphenyl-4-yl]methyl}-4-butyl-2-methyl-6-oxopyrimidin-1(6H)-yl}pyrimidin-5-yloxy}-N,N-diethylpentanamide]",< 100
8,"CCCCc1nc(C)n(-c2ncc(OCCCCC(N)=O)cn2)c(=O)c1Cc1ccc(-c2ccccc2-c2nnn[nH]2)cc1 [Example 53, 5-{2-{5-{[2′-(1H-tetrazol-5-yl)biphenyl-4-yl]methyl}-4-butyl-2-methyl-6-oxopyrimidin-1(6H)-yl}pyrimidin-5-yloxy}pentanamide]",8.5
9,"CCCCc1nc(C)n(-c2ncc(OCCCCC(=O)NCC)cn2)c(=O)c1Cc1ccc(-c2ccccc2-c2nnn[nH]2)cc1 [Example 54, 5-{2-{5-{[2′-(1H-tetrazol-5-yl)biphenyl-4-yl]methyl}-4-butyl-2-methyl-6-oxopyrimidin-1(6H)-yl}pyrimidin-5-yloxy}-N-ethylpentanamide]",25
10,"CCCCc1nc(C)n(-c2ncc(OCCCC(=O)NCCC)cn2)c(=O)c1Cc1ccc(-c2ccccc2-c2nnn[nH]2)cc1 [Example 50, 4-{2-{5-{[2′-(1H-tetrazol-5-yl)biphenyl-4-yl]methyl}-4-butyl-2-methyl-6-oxopyrimidin-1(6H)-yl}pyrimidin-5-yloxy}-N-propylbutanamide]",14
11,"CCCCc1nc(C)n(-c2ncc(OCCCNC(C)=O)cn2)c(=O)c1Cc1ccc(-c2ccccc2-c2nnn[nH]2)cc1 [Example 56, N-{3-{2-{5-{[2′-(1H-tetrazol-5-yl)biphenyl-4-yl]methyl}-4-butyl-2-methyl-6-oxopyrimidin-1 (6H)-yl}pyrimidin-5-yloxy}propyl}acetamide]",2.4
12,"CCCCc1nc(C)n(-c2ncc(O)cn2)c(=O)c1Cc1ccc(-c2ccccc2-c2nnn[nH]2)cc1 [Example 20, 5-{[2′-(1H-tetrazol-5-yl)biphenyl-4-yl]methyl}-6-butyl-3-(5-hydroxypyrimidin-2-yl)-2-methylpyrimidin-4 (3H)-one]",6.3
13,"CCCCc1nc(C)n(-c2nc(Cl)cc(Cl)n2)c(=O)c1Cc1ccc(-c2ccccc2-c2nnn[nH]2)cc1 [Example 30, 5-{[2′-(1H-tetrazol-5-yl)biphenyl-4-yl]methyl}-6-butyl-3-(4,6-dichloropyrimidin-2-yl)-2-methylpyrimidin-4 (3H)-one]",20
14,"CCCCc1nc(C)n(-c2cnccn2)c(=O)c1Cc1ccc(-c2ccccc2-c2nnn[nH]2)cc1 [Example 60, 5-{[2′-(1H-tetrazol-5-yl)biphenyl-4-yl]methyl}-6-butyl-2-methyl-3-(pyrazin-2-yl)pyrimidin-4 (3H)-one]",8.1
15,"CCCCc1nc(C)n(-c2ncc(OC(C(N)=O)c3ccccc3)cn2)c(=O)c1Cc1ccc(-c2ccccc2-c2nnn[nH]2)cc1 (stereo not drawn) [Example 44, 2-{2-{5-{[2′-(1H-tetrazol-5-yl)biphenyl-4-yl]methyl}-4-butyl-2-methyl-6-oxopyrimidin-1(6H)-yl}pyrimidin-5-yloxy}-2-phenylacetamide]",963

# Other lines, results leading:
row,IC50 [nM],Compound
1,4.3,"CCCCc1nc(C)n(-c2ncc(OCCCC(=O)O)cn2)c(=O)c1Cc1ccc(-c2ccccc2-c2nnn[nH]2)cc1 [Example 46, 4-{2-{5-{[2′-(1H-tetrazol-5-yl)biphenyl-4-yl]methyl}-4-butyl-2-methyl-6-oxopyrimidin-1(6H)-yl}pyrimidin-5-yloxy}butanoic acid]"
2,347,"CCCCc1nc(C)n(-c2ncc(OCCc3nc(-c4ccccc4)oc3C)cn2)c(=O)c1Cc1ccc(-c2ccccc2-c2nnn[nH]2)cc1 [Example 35, 5-{[2′-(1H-tetrazol-5-yl)biphenyl-4-yl]methyl}-6-butyl-2-methyl-3-{5-[2-(5-methyl-2-phenyloxazol-4-yl)ethoxy]pyrimidin-2-yl}pyrimidin-4 (3H)-one]"
3,25.2,CCCCc1nc(C)n(-c2ncc(OCC(=O)OCC)cn2)c(=O)c1Cc1ccc(-c2ccccc2-c2nnn[nH]2)cc1 [Example 37]
4,2.7,"CCCCc1nc(C)n(-c2ncc(OC)cn2)c(=O)c1Cc1ccc(-c2ccccc2-c2nnn[nH]2)cc1 [Example 18, 5-{[2′-(1H-tetrazol-5-yl)biphenyl-4-yl]methyl}-6-butyl-3-(5-methoxypyrimidin-2-yl)-2-methylpyrimidin-4 (3H)-one]"
5,956,"CCCCc1nc(C)n(-c2ncc(OCc3nc(-c4ccco4)oc3C)cn2)c(=O)c1Cc1ccc(-c2ccccc2-c2nnn[nH]2)cc1 [Example 33, 5-{[2′-(1H-tetrazol-5-yl)biphenyl-4-yl]methyl}-6-butyl-3-{5-{[2-(furan-2-yl)-5-methyloxazol-4-yl]methoxy}pyrimidin-2-yl}-2-methylpyrimidin-4 (3H)-one]"
6,428,"CCCCc1nc(C)n(-c2ncc(OCc3nc(-c4ccc(Br)o4)oc3C)cn2)c(=O)c1Cc1ccc(-c2ccccc2-c2nnn[nH]2)cc1 [Example 32, 5-{[2′-(1H-tetrazol-5-yl)biphenyl-4-yl]methyl}-3-{5-{[2-(5-bromofuran-2-yl)-5-methyloxazol-4-yl]methoxy}pyrimidin-2-yl}-6-butyl-2-methylpyrimidin-4 (3H)-one]"
7,6.5,"CCCCc1nc(C)n(-c2ncc(OCC(=O)O)cn2)c(=O)c1Cc1ccc(-c2ccccc2-c2nnn[nH]2)cc1 [Example 38, 2-{2-{5-{[2′-(1H-tetrazol-5-yl)biphenyl-4-yl]methyl}-4-butyl-2-methyl-6-oxopyrimidin-1(6H)-yl}pyrimidin-5-yloxy}acetic acid]"
8,754,"CCCCc1nc(C)n(-c2ncc(OCc3nc(-c4ccc5ccccc5c4)oc3C)cn2)c(=O)c1Cc1ccc(-c2ccccc2-c2nnn[nH]2)cc1 [Example 34, 5-{[2′-(1H-tetrazol-5-yl)biphenyl-4-yl]methyl}-6-butyl-2-methyl-3-{5-{[5-methyl-2-(naphthalen-2-yl)oxazol-4-yl]methoxy}pyrimidin-2-yl}-pyrimidin-4 (3H)-one]"
9,24,"CCCCc1nc(C)n(-c2ncc(OCCCO)cn2)c(=O)c1Cc1ccc(-c2ccccc2-c2nnn[nH]2)cc1 [Example 25, 5-{[2′-(1H-tetrazol-5-yl)biphenyl-4-yl]methyl}-6-butyl-3-[5-(3-hydroxypropoxy)pyrimidin-2-yl]-2-methylpyrimidin-4 (3H)-one]"
